{"source": "ChEMBL document CHEMBL5726641", "about": "“Inhibitors of lysine methyl transferase” (2017)", "data": [{"biological_target": "Histone-lysine N-methyltransferase EZH2 (Homo sapiens, UniProt Q15910, Y641F)", "sequence (Q15910 whole entry Y641F)": "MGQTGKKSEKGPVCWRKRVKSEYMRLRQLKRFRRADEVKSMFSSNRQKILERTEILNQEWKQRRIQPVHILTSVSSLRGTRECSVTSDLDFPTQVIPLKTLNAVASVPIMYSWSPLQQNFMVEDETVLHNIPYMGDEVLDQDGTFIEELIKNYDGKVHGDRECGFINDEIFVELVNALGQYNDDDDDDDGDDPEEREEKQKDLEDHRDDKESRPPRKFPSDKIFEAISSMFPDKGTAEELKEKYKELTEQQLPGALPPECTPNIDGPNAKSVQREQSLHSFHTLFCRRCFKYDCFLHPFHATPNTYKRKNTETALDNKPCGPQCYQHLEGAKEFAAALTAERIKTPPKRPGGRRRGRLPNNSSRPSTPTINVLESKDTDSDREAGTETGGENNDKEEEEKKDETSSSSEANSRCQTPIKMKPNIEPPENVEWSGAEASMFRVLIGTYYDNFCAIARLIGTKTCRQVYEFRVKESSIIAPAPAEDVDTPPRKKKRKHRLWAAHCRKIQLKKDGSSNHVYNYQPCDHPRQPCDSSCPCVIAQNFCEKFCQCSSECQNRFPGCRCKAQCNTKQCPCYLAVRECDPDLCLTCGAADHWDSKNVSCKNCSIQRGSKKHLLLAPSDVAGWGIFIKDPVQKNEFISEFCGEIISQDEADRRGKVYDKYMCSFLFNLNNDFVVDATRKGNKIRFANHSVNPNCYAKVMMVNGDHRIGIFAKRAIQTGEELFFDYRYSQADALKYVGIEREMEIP", "experiment": "Biological Assay: EZH2 Histone Methyl Transferase Assay: The effectiveness of compounds of the present invention as inhibitors of histone methyl transferases can be readily tested by assays known to those skilled in the art. For example, in vitro histone methyl transferase assays may be conducted with a relevant purified histone methyl transferase and an appropriate synthetic substrate to determine the inhibitory activity of the compounds. Assays for inhibition of EZH2 by the instant compounds were performed in 384-well plates with reaction mixtures containing 350 nM of histone peptide substrate (ATKAAR-K(Me2)-SAPATGGVKKPHRYRPG-GK(Biotin), 500 nM S-[methyl-3H]adenosyl-L-methionine (55-85 Ci/mmol), 50 mM Tris-HCl (pH 9.0), 50 mM NaCl, 1 mM dithiothreitol, Tween-20 at 0.01% and fatty-acid free bovine serum albumin at 0.01%, and recombinant EZH2-641F complex (EZH2 Y641F/EED/SUZ12/RbAp48/AEBP2) at 5 nM (>98% purity, BPS Bioscience) or 15 nM (50% purity, in-house). Reaction mixtures were incubated at room temperature for 3 hours, and the reactions were terminated by 0.005% poly-L-lysine solution in 20 mM Tris-HCl (pH 7.5) and 150 mM NaCl. Reaction products were captured by binding to strepavidin-conjugated imaging beads. Incorporation of radioactive methyl group into the histone peptide substrate was determined in Leadseeker (GE Healthcare) by means of scintillation proximity assay.", "units": {"IC50": "nM"}, "values": [{"smiles": "C=C(C)C1(C)Cc2cc(C(=O)NCc3c(CCC)cc(C)[nH]c3=O)cc(-c3cnc(N4CCNCC4)nc3)c2O1", "note": "(centres undefined)", "IC50": "< 500"}, {"smiles": "C=C(C)C1(C)Cc2cc(C(=O)NCc3c(CCC)cc(C)[nH]c3=O)cc(-c3ccc(N4CCNCC4)nc3)c2O1", "note": "(centres undefined)", "IC50": "< 500"}, {"smiles": "CCCc1cc(C)[nH]c(=O)c1CNC(=O)c1cc2c(c(-c3ccc(N4CCNCC4)nc3)c1)OC(C)(C(C)C)C2", "note": "(centres undefined)", "IC50": "< 500"}, {"smiles": "C=C(C)C1(C)Cc2cc(C(=O)NCc3c(C)cc(C)[nH]c3=O)cc(-c3ccc(N4CCNCC4)nc3)c2O1", "note": "(centres undefined)", "IC50": "< 500"}, {"smiles": "COc1ccc(-c2cc(C(=O)NCc3c(C)cc(C)[nH]c3=O)cc3c2OCC3(C)C)cn1", "IC50": "> 1000"}, {"smiles": "COc1ccc(-c2cc(C(=O)NCc3c(C)cc(C)[nH]c3=O)cc3c2OC(C)(C(C)C)C3)cn1", "note": "(centres undefined)", "IC50": "> 1000"}, {"smiles": "CCC1COc2cc(C(=O)NCc3c(C)cc(C)[nH]c3=O)cc(-c3ccc(N4CCNCC4)nc3)c2O1", "note": "(centres undefined)", "IC50": "> 1000"}, {"smiles": "Cc1cc(C)c(CNC(=O)c2cc(Br)c3c(c2)OC/C=C\\CO3)c(=O)[nH]1", "IC50": "> 1000"}, {"smiles": "Cc1cc(C)c(CNC(=O)c2cc3c(c(C(F)(F)F)c2)OC(C)(C)C3)c(=O)[nH]1", "IC50": "> 1000"}]}]}
